# Assay results published in article PMC3933250 (Annals of Oncology, 2014).
# Legend:
# [1] = system: R/M-SCCHN patients; conditions: ≤2000 mg cilengitide plus PFE, phase I part; cited from earlier work
# [2] = Cilengitide pharmacokinetic profile in plasma during cycle 1; assay type: in vivo, human; conditions: PFE + CIL1W and PFE + CIL2W groups
smiles,measurement,setting,value
"CC(C)[C@H]1C(=O)N[C@@H](CCCN=C(N)N)C(=O)NCC(=O)N[C@@H](CC(=O)O)C(=O)N[C@H](Cc2ccccc2)C(=O)N1C [cilengitide, Cilengitide]",Dose-limiting or unexpected toxicities,[1],no dose-limiting or unexpected toxicities
same,Influence of the different cilengitide dosing on cetuximab exposure,[2],no clinically relevant influence
